Laboratory results as given in patent publication US20250188164A1, “PHARMACEUTICAL COMPOSITION COMPRISING ANTI-CTLA4-ANTI-PD-1 BISPECIFIC ANTIBODY AND CHIAURANIB” (AKESO PHARMACEUTICALS, INC., priority 2022, published 2025).

System: mixed culture of DC, PBMC and A375 cells
Assay: Lymphocyte-tumor cell mixed reaction system, cytokine secretion by ELISA
Assay type: cell-based, human
Conditions: A375 cells treated with 15 μM chiauranib for 48 h, BiAb004(hG1TM) 300 nM
Procedure: Freshly isolated PBMCs (from healthy donors) were adhered to the wall overnight. Mononuclear cells were collected. GM-CSF (2000 U/mL, from peprotech, Cat. No. 300-03) and IL-4 (2000 U/mL from peprotech, Cat. No. 200-04) were added. Induction was performed after 3 days of culture. For the iDC group, half of the medium was exchanged, and GM-CSF (2000 U/mL) and IL4 (2000 U/mL) were added. For the mDC group, half of the medium was exchanged, and GM-CSF (2000 U/mL), IFN-γ (50 ng/mL, from Sino Biological, Cat. No. 11725-HNAS-100) and LPS (100 ng/mL, from SIGMA, Cat. No. L6529) were added. The cells were cultured in an incubator for 2 days and frozen for later use.
A375 cells (purchased from ATCC, agency: Zhongyuan Ltd., Cat. No. CRL-1619) were digested conventionally, collected by centrifugation, and plated on 10 cm dishes at 2×10^6 cells/dish. Chiauranib (from Chipscreen Biosciences, Lot No. 210604) was added to one of the dishes to a final concentration of 15 μM, and a blank control group was set. The mixture was incubated in an incubator at 37° C. and 5% CO2 for 48 h (medium: DMEM+10% FBS). […] The cells were counted and plated as per DC:PBMC=1:10 in 96-well flat-bottom plates. […] The amounts of secretion of IFN-γ (purchased from Dakewe, Cat. No. 1110202) and IL-2 (purchased from Dakewe, Cat. No. 1110202) were measured by an ELISA kit.

COc1ccc2c(Oc3ccc4c(C(=O)Nc5ccccc5N)cccc4c3)ccnc2c1 [chiauranib, N-(2-aminophenyl)-6-(7-methoxyquinoline-4-oxy)-1-naphthamide]
secretion of IFN-γ (supernatants day 3 and day 5, FIG. 17): effectively promote
secretion of IL-2 (supernatants day 3 and day 5, FIG. 18): effectively promote
